Patent publication US6506766B1 (Abbott Laboratories, priority 1998, dated 2003)
Like-named read-outs stand apart in the source and are kept apart here.

How the values were obtained:
[1] = target: T1, human progesterone receptor-A [PRA] isoform (Homo sapiens, UniProt P06401); test: Radioligand binding with human progesterone receptor cytosol ([3H]-progesterone competition); details: read-out: Ki (nM) PR
T1 construct: host or cells: insect SF21 cells (baculovirus)
T1 sequence (P06401 1-769 isoform P06401-2): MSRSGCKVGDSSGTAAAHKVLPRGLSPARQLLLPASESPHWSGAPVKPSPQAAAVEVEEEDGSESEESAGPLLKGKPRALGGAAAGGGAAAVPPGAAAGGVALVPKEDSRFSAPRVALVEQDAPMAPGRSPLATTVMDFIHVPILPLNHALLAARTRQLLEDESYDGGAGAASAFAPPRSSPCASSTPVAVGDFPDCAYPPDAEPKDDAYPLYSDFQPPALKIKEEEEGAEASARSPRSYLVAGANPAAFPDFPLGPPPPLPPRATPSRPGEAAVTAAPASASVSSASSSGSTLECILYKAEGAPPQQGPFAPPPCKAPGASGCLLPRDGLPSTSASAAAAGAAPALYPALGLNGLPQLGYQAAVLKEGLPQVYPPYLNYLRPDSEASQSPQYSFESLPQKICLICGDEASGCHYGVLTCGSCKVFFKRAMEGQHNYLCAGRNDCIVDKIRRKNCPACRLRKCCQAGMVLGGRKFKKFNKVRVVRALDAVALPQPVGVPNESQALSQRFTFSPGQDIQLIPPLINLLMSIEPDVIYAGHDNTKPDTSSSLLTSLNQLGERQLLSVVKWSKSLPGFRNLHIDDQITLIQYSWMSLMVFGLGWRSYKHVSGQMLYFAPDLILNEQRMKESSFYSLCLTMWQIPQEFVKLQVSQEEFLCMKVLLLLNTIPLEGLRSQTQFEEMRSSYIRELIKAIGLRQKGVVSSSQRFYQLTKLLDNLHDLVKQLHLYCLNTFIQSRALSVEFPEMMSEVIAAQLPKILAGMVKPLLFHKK
Experimental: Both receptor cDNAs were cloned into baculovirus expression vectors and expressed in insect SF21 cells.
Stock solutions (32 mM) of compounds were prepared in dimethylsulfoxide (DMSO), and 50× solutions of test compounds were prepared from the 32 mM solution with a 50:50 mixture of DMSO/ethanol. The 50× solution was then diluted with binding buffer that contained 10 mM Tri-HCl, 1.5 mM EDTA, 10% glycerol, 1 mM DTT, 20 mM sodium molybdate, pH 7.5 @4° C. 1% DMSO/ethanol was present in the binding assay.
For PR binding assays, [^3H]Prog (˜36,000 dpm (˜0.8 nM)), PRA cytosol (˜40 μg protein), test compounds and binding buffer were mixed in a total volume of 200 μL and incubated at 4° C at overnight in a plate shaker. Specific binding was defined as the difference between binding of [^3H]Prog in the absence and in the presence of 3 μM unlabelled Prog.
After an overnight incubation, 50 μL of hydroxyapatite (25% weight/volume) slurry were added to each well and plates were incubated for 10 min at 0° C. in a plate shaker. Plates were suctioned with a Millipore vacuum manifold and each well was rinsed with 300 μL of ice-cold binding buffer. A 250 μL aliquot of Packard Microscint-20 was added to each well and the wells were shaken at room temperature for 20 minutes. The amount of radioactivity was determined with a Packard TopCount plate reader.
The Ki of test compounds was determined using the Cheng-Prusoff equation Ki=IC50/(1+[L*]/[KL]) where L* is the concentration of radioligand and KL is the dissociation constant of the radioligand determined from saturation analysis.

[2] = target: T2, human glucocorticoid receptor-α [GRX] isoform (Homo sapiens, UniProt P04150); test: Radioligand binding with human glucocorticoid receptor cytosol ([3H]-dexamethasone competition)
T2 construct: host or cells: insect SF21 cells (baculovirus)
T2 sequence (P04150 1-777): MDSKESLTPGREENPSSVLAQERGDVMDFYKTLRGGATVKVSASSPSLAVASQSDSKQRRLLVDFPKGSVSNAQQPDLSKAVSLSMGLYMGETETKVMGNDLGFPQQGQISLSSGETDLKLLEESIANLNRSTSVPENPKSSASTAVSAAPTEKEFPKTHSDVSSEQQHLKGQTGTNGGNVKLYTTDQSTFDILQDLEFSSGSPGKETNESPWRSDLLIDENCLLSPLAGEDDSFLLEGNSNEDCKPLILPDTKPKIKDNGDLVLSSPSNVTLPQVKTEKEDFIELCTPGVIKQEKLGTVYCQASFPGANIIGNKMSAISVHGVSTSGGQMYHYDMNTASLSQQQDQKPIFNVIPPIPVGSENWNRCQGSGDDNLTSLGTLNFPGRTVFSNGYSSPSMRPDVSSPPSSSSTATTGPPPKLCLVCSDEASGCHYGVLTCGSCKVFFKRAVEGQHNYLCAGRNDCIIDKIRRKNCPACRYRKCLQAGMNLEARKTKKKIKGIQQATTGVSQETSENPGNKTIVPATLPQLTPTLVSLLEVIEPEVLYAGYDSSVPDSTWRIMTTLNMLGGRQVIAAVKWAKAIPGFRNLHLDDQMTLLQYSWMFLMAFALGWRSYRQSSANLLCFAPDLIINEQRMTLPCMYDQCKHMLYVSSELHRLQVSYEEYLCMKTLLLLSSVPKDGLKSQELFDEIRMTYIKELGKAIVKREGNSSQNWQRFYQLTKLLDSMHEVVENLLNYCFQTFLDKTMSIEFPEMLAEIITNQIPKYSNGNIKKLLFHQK

[3] = PRA cytosol expressed in insect SF21 cells, [3H]Prog ~0.8 nM, 4° C. overnight, Ki by Cheng-Prusoff, KL ~4.5 nM
[4] = GRX cytosol expressed in insect SF21 cells, [3H]-Dex ~0.9 nM, 4° C. overnight, Ki by Cheng-Prusoff, KL ~[…], read-out: Ki (nM) GR

Compound | Ki [1, 3] [nM] | Ki [2, 4] [nM] | Ki [1] [nM] | Ki ([2]; read-out: Ki (nM) GR) [nM] | Ki ([2]; Ki (nM) GR) [nM]
COc1c(O)ccc2c1-c1ccc3c(c1C(=Cc1cccc(F)c1)O2)C(C)=CC(C)(C)N3 [Example 412, 9-Hydroxy-10-methoxy-5-([3-fluorophenyl]methylene)-2,2,4-trimethyl-1H-2,5-dihydro-[1]benzopyrano[3,4-f]quinoline] | 222 | 9 | – | – | –
C=CCC1Oc2cccc(C=C)c2-c2ccc3c(c21)C(C)=CC(C)(C)N3 (centres unmarked) [Example 5, 10-Ethenyl-2,5-dihydro-2,2,4-trimethyl-5-(2-propenyl)-1H-[1]benzopyrano[3,4-f]quinoline] | ≥ 10000 | 357 | – | – | –
CC1=CC(C)(C)Nc2ccc3c(c21)C(C(C)C)Oc1ccc(O)c(Cl)c1-3 (centres unmarked) [Example 405, 2,5-Dihydro-9-hydroxy-10-chloro-2,2,4-trimethyl-5-isopropyl-1H-[1]benzopyrano[3,4-f]quinoline] | 75.1 | 1.1 | – | – | –
CC1=CC(C)(C)Nc2ccc3c(c21)C(=Cc1ccccc1)Oc1ccc(O)c(Cl)c1-3 [Example 401, 9-Hydroxy-10-chloro-5-(phenylmethylene)-2,2,4-trlimethyl-1H-2,5-dihydro-[1]benzopyrano[3,4-f]quinoline] | 6080 | 134 | – | – | –
COC(=O)C1=CC(C2Oc3ccc(O)c(OC)c3-c3ccc4c(c32)C(C)=CC(C)(C)N4)CCC1 (single isomer, unassigned) [Example 415] | 3740 | 9.9 | – | – | –
C=CCC1Oc2ccc(OC(=O)CCNC(C)=O)c(OC)c2-c2ccc3c(c21)C(C)=CC(C)(C)N3 (racemic) [Example 428, (+/−)2,5-Dihydro-9-(3-acetamido-propanoyloxy)-10-methoxy-2,2,4-trimethyl-5-allyl-1H-[1]benzopyrano[3,4-f]quinoline] | 204 | 0.91 | – | – | –
C=CCC1Oc2cccc(CN)c2-c2ccc3c(c21)C(C)=CC(C)(C)N3 (centres unmarked) [Example 331, 2,5-Dihydro-10-aminomethyl-5-(3-propenyl)-2,2,4-trimethyl-1H-[1]benzopyrano[3,4-f]quinolione] | ≥ 10000 | 142 | – | – | –
CCOC(=O)NCC1Oc2cccc(OC)c2-c2ccc3c(c21)C(C)=CC(C)(C)N3 (centres unmarked) [Example 207] | ≥ 10000 | 22 | – | – | –
COc1cccc2c1-c1ccc3c(c1C(=CC1=NC(C)(C)CO1)O2)C(C)=CC(C)(C)N3 [Example 127, 2,5-Dihydro-10-methoxy-2,2,4-trimethyl-5-[(4,5-dihydro-4,4-dimethyl-2-oxazolyl)methylene]-1H-[1]benzopyrano[3,4-f]quinoline] | ≥ 10000 | 29.3 | – | – | –
CC(=O)Oc1cccc2c1-c1ccc3c(c1C(c1ccccc1)O2)C(C)=CC(C)(C)N3 (centres unmarked) [Example 10, 2,5-Dihydro-2,2,4-trimethyl-5-phenyl-1H-[1]benzopyrano[3,4-f]quinoline-10-ol Acetate (Ester)] | 10900 | 179 | – | – | –
9,10-Dimethoxy-5-[3-cyclohexenyl]-methoxy-2,2,4-trimethyl-2,5-dihydro-1H-[1]benzopyrano[3,4-f]quinoline [Example 291] | – | – | 592 | 8.1 | –
C=CCC1Oc2ccc(OCSC)c(OC)c2-c2ccc3c(c21)C(C)=CC(C)(C)N3 (centres unmarked) [Example 436, 2,5-Dihydro-9-methylthiomethoxy-10-methoxy-2,2,4-trimethyl-5-allyl-1H-[1]benzopyrano[3,4-f]quinoline] | 5920 | 18.8 | – | – | –
COc1cccc2c1-c1ccc3c(c1C(CC(=O)NC1CC1)O2)C(C)=CC(C)(C)N3 (centres unmarked) [Example 65, N-Cyclopropyl-2,5-Dihydro-10-methoxy-2,2,4-trimethyl-1H-[1]benzopyrano[3,4-f]quinoline-5-acetamide] | ≥ 10000 | 591 | – | – | –
COc1c(O)ccc2c1-c1ccc3c(c1[C@@H]([C@@H]1C=C(C)CCC1)O2)C(C)=CC(C)(C)N3 [Example 240, (+)(5R,3′S)-9-Hydroxy-5-[1-methyl-3-cyclohexenyl]-10-methoxy-2,2,4-trimethyl-2,5-dihydro-1H-[1]benzopyrano[3,4-f]quinoline] | 2170 | 52.2 | – | – | –
C=CCC1Oc2cccc(SC)c2-c2ccc3c(c21)C(C)=CC(C)(C)N3 (centres unmarked) [Example 342, 2,5-Dihydro-5-(3-propenyl)-10-methylthio-2,2,4-trimethyl-1H-[1]benzopyrano[3,4-f]quinoline] | ≥ 10000 | 2590 | – | – | –
COc1cccc2c1-c1ccc3c(c1C([C@H]1C=C(CSC)CCC1)O2)C(C)=CC(C)(C)N3 (stereo in doubt) [Example 161] | ≥ 10000 | 3.3 | – | – | –
C=CCC1Oc2ccc(OC(=O)NC3CCCCC3)c(OC)c2-c2ccc3c(c21)C(C)=CC(C)(C)N3 (centres unmarked) [Example 443, 10-Methoxy-9-(cyclohexylaminocarbonyl)-oxy-5-(3-propenyl)-2,2,4-trimethyl-1H-2,5-dihydro-[1]benzopyrano[3,4-f]quinoline] | – | – | ≥ 10000 | 63.5 | –
CSCOc1cccc(C2Oc3cccc(OC(F)F)c3-c3ccc4c(c32)C(C)=CC(C)(C)N4)c1 (centres unmarked) [Example 396] | 2120 | 6.3 | – | – | –
COc1cccc2c1-c1ccc3c(c1C(C1C=CCCC1)O2)C(C)=CC(C)(C)N3 (mixture of isomers) [Example 137] | 2410 | – | – | – | 5.5
COc1cccc2c1-c1ccc3c(c1CO2)C(C)=CC(C)(C)N3 [Example 38, 2,5-Dihydro-10-methoxy-2,2,4-trimethyl-1H-[1]benzopyrano[3,4-f]quinoline] | ≥ 10000 | 207 | – | – | –
C=CCC1Oc2cccc(CO)c2-c2ccc3c(c21)C(C)=CC(C)(C)N3 (centres unmarked) [Example 77, 2,5-Dihydro-2,2,4-trimethyl-5-(2-propenyl)-1H-[1]benzopyrano[3,4-f]quinoline-10-methanol] | 173 | 1.6 | – | – | –
C=CCC1Oc2c(C)cc(C)c(OC)c2-c2ccc3c(c21)C(C)=CC(C)(C)N3 (centres unmarked) [Example 308, 10-Methoxy-7-methyl-9-methyl-5-(3-propenyl)-2,2,4-trimethyl-1H-2,5-dihydro-[1]benzopyrano[3,4-f]quinoline] | 960 | 50.8 | – | – | –
C=C1CC(C)(C)Nc2ccc3c(c21)C(c1ccccc1)Oc1cccc(OC(F)(F)Br)c1-3 (centres unmarked) [Example 347, 10-(Bromodifluoromethoxy)-5-phenyl-2,2-dimethyl-4-methylene-2,3,4,5-tetrahydro-1H-chromeno[3,4-f]quinoline] | ≥ 10000 | 128 | – | – | –
COc1c(O)ccc2c1-c1ccc3c(c1C(C1C=CCCC1)O2)C(C)=CC(C)(C)N3 (single isomer, unassigned; (+)) [Example 284] | 2100 | 110 | – | – | –
CCCc1ccc(C2Oc3cccc(OC)c3-c3ccc4c(c32)C(C)=CC(C)(C)N4)s1 (centres unmarked) [Example 41, 2,5-Dihydro-10-methoxy-2,2,4-trimethyl-5-(5-propyl-2-thienyl)-1H-[1]benzopyrano[3,4-f]quinoline] | 3300 | 9.5 | – | – | –
C=CCC1Oc2cccc(OC)c2-c2ccc3c(c21)C=C(C)C(C)(C)N3 (centres unmarked) [Example 364, 2,5-Dihydro-10-methoxy-2,2,3-trimethyl-5-allyl-1H-[1]benzopyrano[3,4-f]quinoline] | ≥ 10000 | 424 | – | – | –
COc1cccc2c1-c1ccc3c(c1C(c1ccncc1)O2)C(C)=CC(C)(C)N3 (centres unmarked) [Example 215, 2,5-Dihydro-10-methoxy-5-(4-pyridyl)-2,2,4-trimethyl-1H-[1]benzopyrano[3,4-f]quinoline] | ≥ 10000 | 20 | – | – | –
COc1c(Br)cc(Br)c2c1-c1ccc3c(c1C(C1C=C(C)CCC1)O2)C(C)=CC(C)(C)N3 (centres unmarked) [Example 303] | 58.5 | 4.9 | – | – | –
